Results as given in patent publication US20050113405A1, “Methods of treating rheumatoid arthritis using NF-kB inhibitors” (Wyeth, priority 2003, published 2005).

What was measured:
[1] = tested on: Lewis rats with adjuvant-induced arthritis; assay: Adjuvant-induced arthritis in Lewis rats, daily joint scores (hindpaw erythema and swelling); type: in vivo, rat
[2] = tested on: Lewis rats with adjuvant-induced arthritis; assay: Adjuvant-induced arthritis in Lewis rats, histological scoring of tarsal joints (Mankin and synovitis scores); type: in vivo, rat; conditions: for Tidemark Integrity (0-1) / Cartilage Cells (0-3) / Cartilage Structure (0-6) / Fibroplasia (0-3) / Inflammatory Cells (0-3) / Pannus (0-2) / Saffranin-O/Fast Green Staining (0-4) / Synovial Structure (0-3) / Total Mankin Score (0-14) / Total Synovitis Score (0-10): tarsal joints; for Cartilage Cells (0-3) / Cartilage Structure (0-6) / Fibroplasia (0-3) / Inflammatory Cells (0-3) / Pannus (0-2) / Saffranin-O/Fast Green Staining (0-4) / Synovial Structure (0-3) / Total Mankin Score (0-14) / Total Synovitis Score (0-10): mean ± SD
Method: Statistical analysis was performed using Abacus Concepts Super ANOVA. (Abacus Concepts, Inc., Berkeley, Calif.). All of the parameters of interest were subjected to Analysis of Variance with Duncan's new multiple range post hoc testing between groups. Data are expressed throughout as mean±standard deviation (SD), and differences were deemed significant if p<0.05.
At the end of the study the rats were euthanized with CO2, hindlimbs were removed at necropsy and fixed in 10% buffered formalin, and the tarsal joints were decalcified and embedded in paraffin. Histologic sections will be stained with Hematoxylin and Eosin or Saffranin O—Fast Green stain.
Slides will be coded so that the examiner will be blinded to the treatment groups. […] Articular cartilage and bone will be evaluated using Mankin's histological grading system (method described by Mankin H J, Dorfman, H:Lippieo L. L. Zarins. 1971. Biochemical and metabolic abnormalities in articular cartilage from osteoarthritic human hip. See J. Bone Joint Surg (AM) 53A:152-153) (Table 6).

BALB/c mice = assay: Collagen induced arthritis model (anti-type II collagen mAbs plus LPS), hind paw volume; type: in vivo, mouse; conditions: 2.5 mg/kg orally once daily; over the course of the experiment
Method: Compounds are evaluated in BALB/c mice, 6-8 weeks of age, in which arthritis is induced by monoclonal antibodies raised against type II collagen, plus lipopolysaccharide (LPS). The animals were administered intravenously with a combination of 4 different mAbs totaling 4 mg/mouse on day 0, and followed by intravenous 25 μg of LPS 72 hours later (day 3). From day 3, one hour after LPS application, tested compounds are give orally once daily for 15 days. For each animal, increase in volume of both hind paws is measured using a plethysmometer with water cell (12 mm diameter) on days 0, 5, 7, 10, 14 and 17. Percent inhibition of increase in volume is calculated. Reduction of edema in the hind paws by 30% or more is considered significant.

HLA-B27 transgenic rats [3] = assay: HLA-B27 transgenic rat, stool and clinical joint scores; type: in vivo; conditions: sub-optimal dose 0.6 mg/kg
Source text: (§1) The HLA-B27 transgenic rat expresses two human proteins (HLA-B27 and β2 microglobulin) that, over time, provoke a misdirected immune response. This model represents a chronic intestinal inflammation with associated arthritis induced by the human class I major histocompatibility allele HLA-B27 that is strongly associated with human disease. […] If the disease is allowed to progress, they begin to show symptoms of arthritis. […] Histological scoring of synovitis and cartilage damage in the tarsal joints after 29 days of treatment was also conducted.

HLA-B27 transgenic rats [4] = assay: HLA-B27 transgenic rat, histological scoring of synovitis and cartilage damage in tarsal joints; type: in vivo; conditions: 0.6 mg/kg orally for 29 days
Source text: as §1

[5] = 0.1 mg/kg orally for 2 weeks from day 8 after CFA
[6] = 0.3 mg/kg orally for 2 weeks from day 8 after CFA
[7] = 1 mg/kg orally for 2 weeks from day 8 after CFA

SMILES: C[C@@H]1c2cc(F)ccc2-c2ccccc2N1S(=O)(=O)c1ccc(O)cc1 (stereo in doubt) [Example 3, 4-[(8-Fluoro-6-methylphenanthridin-5(6H)-yl)sulfonyl]phenol]
- joint scores (paw swelling and redness, maximal score per day 12) ([1]; Day 8, 0.1 mg/kg orally each day from Day 8 after adjuvant): 11.3
- joint scores (paw swelling and redness, maximal score per day 12) ([1]; Day 8, 0.3 mg/kg orally each day from Day 8 after adjuvant): 11.5
- joint scores (paw swelling and redness, maximal score per day 12) ([1]; Day 8, 1 mg/kg orally each day from Day 8 after adjuvant): 11.3
- joint scores (paw swelling and redness, maximal score per day 12) ([1]; Day 9, 0.1 mg/kg orally each day from Day 8 after adjuvant): 10.7
- joint scores (paw swelling and redness, maximal score per day 12) ([1]; Day 9, 0.3 mg/kg orally each day from Day 8 after adjuvant): 9.8
- joint scores (paw swelling and redness, maximal score per day 12) ([1]; Day 9, 1 mg/kg orally each day from Day 8 after adjuvant): 8.8
- joint scores (paw swelling and redness, maximal score per day 12) ([1]; Day 10, 0.1 mg/kg orally each day from Day 8 after adjuvant): 9.3
- joint scores (paw swelling and redness, maximal score per day 12) ([1]; Day 10, 0.3 mg/kg orally each day from Day 8 after adjuvant): 7.3
- joint scores (paw swelling and redness, maximal score per day 12) ([1]; Day 10, 1 mg/kg orally each day from Day 8 after adjuvant): 7
- joint scores (paw swelling and redness, maximal score per day 12) ([1]; Day 11, 0.1 mg/kg orally each day from Day 8 after adjuvant): 9.7
- joint scores (paw swelling and redness, maximal score per day 12) ([1]; Day 11, 0.3 mg/kg orally each day from Day 8 after adjuvant): 7
- joint scores (paw swelling and redness, maximal score per day 12) ([1]; Day 11, 1 mg/kg orally each day from Day 8 after adjuvant): 6
- joint scores (paw swelling and redness, maximal score per day 12) ([1]; Day 12, 0.1 mg/kg orally each day from Day 8 after adjuvant): 10
- joint scores (paw swelling and redness, maximal score per day 12) ([1]; Day 12, 0.3 mg/kg orally each day from Day 8 after adjuvant): 6.7
- joint scores (paw swelling and redness, maximal score per day 12) ([1]; Day 12, 1 mg/kg orally each day from Day 8 after adjuvant): 5
- joint scores (paw swelling and redness, maximal score per day 12) ([1]; Day 13, 0.1 mg/kg orally each day from Day 8 after adjuvant): 4.2
- joint scores (paw swelling and redness, maximal score per day 12) ([1]; Day 13, 0.3 mg/kg orally each day from Day 8 after adjuvant): 3.7
- joint scores (paw swelling and redness, maximal score per day 12) ([1]; Day 13, 1 mg/kg orally each day from Day 8 after adjuvant): 1.7
- joint scores (paw swelling and redness, maximal score per day 12) ([1]; Day 14, 0.1 mg/kg orally each day from Day 8 after adjuvant): 3.5
- joint scores (paw swelling and redness, maximal score per day 12) ([1]; Day 14, 0.3 mg/kg orally each day from Day 8 after adjuvant): 3
- joint scores (paw swelling and redness, maximal score per day 12) ([1]; Day 14, 1 mg/kg orally each day from Day 8 after adjuvant): 1.3
- joint scores (paw swelling and redness, maximal score per day 12) ([1]; Day 15, 0.1 mg/kg orally each day from Day 8 after adjuvant): 3.5
- joint scores (paw swelling and redness, maximal score per day 12) ([1]; Day 15, 0.3 mg/kg orally each day from Day 8 after adjuvant): 3.7
- joint scores (paw swelling and redness, maximal score per day 12) ([1]; Day 15, 1 mg/kg orally each day from Day 8 after adjuvant): 1.3
- joint scores (paw swelling and redness, maximal score per day 12) ([1]; Day 16, 0.1 mg/kg orally each day from Day 8 after adjuvant): 3.3
- joint scores (paw swelling and redness, maximal score per day 12) ([1]; Day 16, 0.3 mg/kg orally each day from Day 8 after adjuvant): 2.3
- joint scores (paw swelling and redness, maximal score per day 12) ([1]; Day 16, 1 mg/kg orally each day from Day 8 after adjuvant): 1.2
- joint scores (paw swelling and redness, maximal score per day 12) ([1]; Day 17, 0.1 mg/kg orally each day from Day 8 after adjuvant): 3.3
- joint scores (paw swelling and redness, maximal score per day 12) ([1]; Day 17, 0.3 mg/kg orally each day from Day 8 after adjuvant): 2.3
- joint scores (paw swelling and redness, maximal score per day 12) ([1]; Day 17, 1 mg/kg orally each day from Day 8 after adjuvant): 1.2
- joint scores (paw swelling and redness, maximal score per day 12) ([1]; Day 18, 0.1 mg/kg orally each day from Day 8 after adjuvant): 3.3
- joint scores (paw swelling and redness, maximal score per day 12) ([1]; Day 18, 0.3 mg/kg orally each day from Day 8 after adjuvant): 2.3
- joint scores (paw swelling and redness, maximal score per day 12) ([1]; Day 18, 1 mg/kg orally each day from Day 8 after adjuvant): 1.2
- joint scores (paw swelling and redness, maximal score per day 12) ([1]; Day 19, 0.1 mg/kg orally each day from Day 8 after adjuvant): 3
- joint scores (paw swelling and redness, maximal score per day 12) ([1]; Day 19, 0.3 mg/kg orally each day from Day 8 after adjuvant): 2
- joint scores (paw swelling and redness, maximal score per day 12) ([1]; Day 19, 1 mg/kg orally each day from Day 8 after adjuvant): 1.2
- joint scores (paw swelling and redness, maximal score per day 12) ([1]; Day 20, 0.1 mg/kg orally each day from Day 8 after adjuvant): 2.8
- joint scores (paw swelling and redness, maximal score per day 12) ([1]; Day 20, 0.3 mg/kg orally each day from Day 8 after adjuvant): 2
- joint scores (paw swelling and redness, maximal score per day 12) ([1]; Day 20, 1 mg/kg orally each day from Day 8 after adjuvant): 1.2
- joint scores (paw swelling and redness, maximal score per day 12) ([1]; Day 21, 0.1 mg/kg orally each day from Day 8 after adjuvant): 2.5
- joint scores (paw swelling and redness, maximal score per day 12) ([1]; Day 21, 0.3 mg/kg orally each day from Day 8 after adjuvant): 1.7
- joint scores (paw swelling and redness, maximal score per day 12) ([1]; Day 21, 1 mg/kg orally each day from Day 8 after adjuvant): 1.2
- joint scores (paw swelling and redness, maximal score per day 12) ([1]; Day 22, 0.1 mg/kg orally each day from Day 8 after adjuvant): 2.5
- joint scores (paw swelling and redness, maximal score per day 12) ([1]; Day 22, 0.3 mg/kg orally each day from Day 8 after adjuvant): 1.7
- joint scores (paw swelling and redness, maximal score per day 12) ([1]; Day 22, 1 mg/kg orally each day from Day 8 after adjuvant): 1.2
- joint scores (paw swelling and redness, maximal score per day 12) ([1]; Day 23, 0.1 mg/kg orally each day from Day 8 after adjuvant): 1.2
- joint scores (paw swelling and redness, maximal score per day 12) ([1]; Day 23, 0.3 mg/kg orally each day from Day 8 after adjuvant): 1
- joint scores (paw swelling and redness, maximal score per day 12) ([1]; Day 23, 1 mg/kg orally each day from Day 8 after adjuvant): 1
- joint scores (paw swelling and redness, maximal score per day 12) ([1]; Day 24, 0.1 mg/kg orally each day from Day 8 after adjuvant): 1.3
- joint scores (paw swelling and redness, maximal score per day 12) ([1]; Day 24, 0.3 mg/kg orally each day from Day 8 after adjuvant): 1.3
- joint scores (paw swelling and redness, maximal score per day 12) ([1]; Day 24, 1 mg/kg orally each day from Day 8 after adjuvant): 0.8
- Tidemark Integrity (0-1) [2, 5]: 0
- Cartilage Cells (0-3) [2, 5]: 1.92 ± 0.21
- Cartilage Structure (0-6) [2, 5]: 2.33 ± 0.68
- Fibroplasia (0-3) [2, 5]: 1.75 ± 0.42
- Inflammatory Cells (0-3) [2, 5]: 1.83 ± 0.52
- Pannus (0-2) [2, 5]: 1.50 ± 0.84
- Saffranin-O/Fast Green Staining (0-4) [2, 5]: 2.42 ± 0.67
- Synovial Structure (0-3) [2, 5]: 2.33 ± 0.75
- Total Mankin Score (0-14) [2, 5]: 6.83 ± 1.25
- Total Synovitis Score (0-10) [2, 5]: 7.42 ± 2.25
- Tidemark Integrity (0-1) [2, 6]: 0
- Cartilage Cells (0-3) [2, 6]: 1.50 ± 0.32
- Cartilage Structure (0-6) [2, 6]: 1.75 ± 0.42
- Fibroplasia (0-3) [2, 6]: 1.67 ± 0.26*t
- Inflammatory Cells (0-3) [2, 6]: 1.25 ± 0.27
- Pannus (0-2) [2, 6]: 0.50 ± 0.84
- Saffranin-O/Fast Green Staining (0-4) [2, 6]: 2.17 ± 0.26
- Synovial Structure (0-3) [2, 6]: 1.58 ± 0.38
- Total Mankin Score (0-14) [2, 6]: 5.42 ± 0.74*t
- Total Synovitis Score (0-10) [2, 6]: 5.00 ± 1.30*#t
- Tidemark Integrity (0-1) [2, 7]: 0
- Cartilage Cells (0-3) [2, 7]: 1.17 ± 0.26*t
- Cartilage Structure (0-6) [2, 7]: 1.25 ± 0.27
- Fibroplasia (0-3) [2, 7]: 1.33 ± 0.41*t
- Inflammatory Cells (0-3) [2, 7]: 1.17 ± 0.26
- Pannus (0-2) [2, 7]: 0.25 ± 0.42
- Saffranin-O/Fast Green Staining (0-4) [2, 7]: 2.17 ± 0.26
- Synovial Structure (0-3) [2, 7]: 1.42 ± 0.38
- Total Mankin Score (0-14) [2, 7]: 4.58 ± 0.74*t
- Total Synovitis Score (0-10) [2, 7]: 4.17 ± 1.21*#t
- overall synovitis and cartilage scores ([2]; all concentrations tested (down to 0.1 mg/kg), oral): significantly improved
- inhibition of paw edema (increase in hind paw volume) (BALB/c mice): > 30%
- melting point: 188 °C

SMILES: COc1cc(OC)cc(N2CCN(C(=O)[C@](C)(C#N)[C@H](c3ccccc3OC)c3cccc4ccccc34)CC2)c1 [Example 4, (S)-3-[4-(3,5-dimethoxyphenyl)piperazin-1-yl]-2-[(S)-(2-methoxyphenyl)(1-naphthyl)methyl]-2-methyl-3-oxopropanenitrile]
- melting point: 186 to 188 °C

SMILES: C[C@]12C=CC(=O)C=C1CC[C@@H]1[C@@H]2[C@@H](O)C[C@@]2(C)[C@H]1CC[C@]2(O)C(=O)CO [Prednisolone]
- improvement in the joint scores (HLA-B27 transgenic rats [3]): 50%
- Tidemark Integrity (0-2) (HLA-B27 transgenic rats [4]): 0
- Cartilage Cells (HLA-B27 transgenic rats [4]; mean ± SD): 2.20 ± 0.45
- Cartilage Structure (0-6) (HLA-B27 transgenic rats [4]; mean ± SD): 3.40 ± 0.55
- Fibroplasia (0-3) (HLA-B27 transgenic rats [4]; mean ± SD): 2.00 ± 0.71
- Inflammatory Cells (0-3) (HLA-B27 transgenic rats [4]; mean ± SD): 2.00 ± 0.00
- Pannus (0-2) (HLA-B27 transgenic rats [4]; mean ± SD): 1.60 ± 0.89
- Safranin-O/Fast Green Staining (0-4) (HLA-B27 transgenic rats [4]; mean ± SD): 3.00 ± 0.00
- Synovial Structure (0-3) (HLA-B27 transgenic rats [4]; mean ± SD): 2.40 ± 0.55
- Total Mankin Score (HLA-B27 transgenic rats [4]; mean ± SD): 8.60 ± 0.89
- Total Synovitis Score (0-11) (HLA-B27 transgenic rats [4]; mean ± SD): 8.00 ± 1.87
